Measurements taken from the supplement of paper PMC10307832.

Assays:
Assay in all cases: relative viability (nuclei count vs DMSO), 5 days (fraction); higher = more cells survive
[1] = system: NCI-H322M
In short: (§1)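 Values are medians from duplicate plates. Each reflects relative viability, defined as the nuclei count of treated wells over that of vehicle wells. Lung cancer cell lines in 1536-well plates were pin-tool dosed one day after seeding with one drug alone or with a fixed anchor-drug dose plus five library-drug doses (not always all listed) in √10 steps, then fixed, stained and imaged at 4× after 5 days.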

[2] = system: NCI-H520
In short: as §1

[3] = system: HCC-827
In short: as §1

[4] = system: NCI-H2087
In short: as §1

[5] = system: LCLC-97TM1
In short: as §1

[6] = system: NCI-H647
In short: as §1

[7] = system: COR-L 105
In short: as §1

[8] = system: NCI-H2126
In short: as §1

[9] = system: PC-14
In short: as §1

[10] = system: NCI-H2405
In short: as §1

[11] = system: H3255
In short: as §1

C=C1C(=O)O[C@@H](CCCCCCCC)[C@@H]1C(=O)O [C-75] + C[C@]1(O)C[C@@H](c2nc(-c3ccc4ccc(-c5ccccc5)nc4c3)c3c(N)nccn32)C1 [Linsitinib] (partner 1 µM)
relative viability ([1]; first compound 0.08 µM): 0.887 | relative viability ([1]; first compound 0.253 µM): 1.05 | relative viability ([1]; first compound 0.8 µM): 0.999 | relative viability ([1]; first compound 2.53 µM): 0.816 | relative viability ([1]; first compound 8 µM): 1.08 | relative viability ([2]; first compound 0.08 µM): 1.1 | relative viability ([2]; first compound 0.253 µM): 1.28 | relative viability ([2]; first compound 0.8 µM): 0.904 | relative viability ([2]; first compound 2.53 µM): 0.906 | relative viability ([2]; first compound 8 µM): 0.825 | relative viability ([3]; first compound 0.08 µM): 0.884 | relative viability ([3]; first compound 0.253 µM): 0.92 | relative viability ([3]; first compound 0.8 µM): 1 | relative viability ([3]; first compound 2.53 µM): 0.972 | relative viability ([3]; first compound 8 µM): 0.923 | relative viability ([4]; first compound 0.08 µM): 1.24 | relative viability ([4]; first compound 0.253 µM): 0.898 | relative viability ([4]; first compound 0.8 µM): 0.975 | relative viability ([4]; first compound 2.53 µM): 0.867 | relative viability ([4]; first compound 8 µM): 1 | relative viability ([5]; first compound 0.08 µM): 0.2 | relative viability ([5]; first compound 0.253 µM): 0.309 | relative viability ([5]; first compound 0.8 µM): 0.177 | relative viability ([5]; first compound 2.53 µM): 0.105 | relative viability ([5]; first compound 8 µM): 0.18 | relative viability ([6]; first compound 0.08 µM): 1.18 | relative viability ([6]; first compound 0.253 µM): 1.31 | relative viability ([6]; first compound 2.53 µM): 0.903 | relative viability ([6]; first compound 8 µM): 0.823 | relative viability ([7]; first compound 0.08 µM): 0.993 | relative viability ([7]; first compound 0.253 µM): 0.928 | relative viability ([7]; first compound 0.8 µM): 0.89 | relative viability ([7]; first compound 2.53 µM): 0.946 | relative viability ([7]; first compound 8 µM): 0.886 | relative viability ([8]; first compound 0.08 µM): 0.698 | relative viability ([8]; first compound 0.253 µM): 0.783 | relative viability ([8]; first compound 0.8 µM): 0.703 | relative viability ([8]; first compound 2.53 µM): 0.683 | relative viability ([8]; first compound 8 µM): 0.711 | relative viability ([9]; first compound 0.08 µM): 0.956 | relative viability ([9]; first compound 0.253 µM): 0.818 | relative viability ([9]; first compound 0.8 µM): 1.03 | relative viability ([9]; first compound 2.53 µM): 0.778 | relative viability ([9]; first compound 8 µM): 0.939 | relative viability ([10]; first compound 0.08 µM): 0.882 | relative viability ([10]; first compound 0.253 µM): 0.728 | relative viability ([10]; first compound 0.8 µM): 0.872 | relative viability ([10]; first compound 2.53 µM): 0.967 | relative viability ([10]; first compound 8 µM): 0.989 | relative viability ([11]; first compound 0.08 µM): 0.868 | relative viability ([11]; first compound 0.253 µM): 1.13 | relative viability ([11]; first compound 0.8 µM): 1.01 | relative viability ([11]; first compound 2.53 µM): 0.895 | relative viability ([11]; first compound 8 µM): 1.16
